≈ marks a conversion by molar mass, not a printed value.
Experiments:
[1] = cited from earlier work
[2] = in vivo; cited from earlier work
[3] = Capacity of drug loading of the electrospun polymer device; format: physicochemical; settings: larger quantities cause supersaturation of the solution
Source text: With time, the solvent would evaporate leaving a crystallized non-homogenous mixture of polymer and drug.

[4] = intravenous infusion, doses 30 to 170 mg/m^2; cited from earlier work

In the case of `COc1ccccc1OCC(O)CO` (racemic) [Guaifenesin, (2RS)-3-(2-Methoxyphenoxy)propane-1,2-diol], the water solubility [1] is listed as 50 mg/mL (≈ 252 mM), the half-life [2] is listed as “approximately 1 hour” and the “maximum amount of drug loaded in the electrospun polymer device” value [3] is listed as 5 wt %.

In the case of `O=NN(CCCl)C(=O)NCCCl` [BCNU], the average terminal half-life [4] is given as 22 min, the clearance [4] is given as 56 mL/min/kg and the “steady-state volume of distribution” value [4] is given as 3.25 L/kg.

With `C[C@]12CC[C@@H]3c4ccc(O)cc4CC[C@H]3[C@@H]1CC[C@@H]2O` [Beta-Estradiol, 17β-estradiol] the “maximum amount of drug loaded in the electrospun polymer device” value [3] was 1 wt %.

Reference: US20110038936A1, “SYSTEM AND METHOD FOR ELECTROSPUN DRUG LOADED BIODEGRADABLE CHEMOTHERAPY APPLICATIONS” (priority 2009, published 2011)
